System: ROS17/2.8 cells
Test: Cell growth of ROS17/2.8 cells by the MTT method (formed formazan)
Type: cell-based, rat
Conditions: for activity at 0.02 µM: Rattus norvegicus, 2×10^−5M Test Compound solution diluted 1000 fold, read-out: Amount of formed formazan, Solution 8 (Test Compound alone); for activity at 0.02 µM / Amount of formed formazan, Solution 10 (a group of a drug combination): percentage to Solution 7 addition group, about 48 hours, average ± standard deviation of four wells; for Relative index of Solution 10 (a group of a drug combination) / Amount of formed formazan, Solution 10 (a group of a drug combination): Test Compound in combination with 1α,25-dihydroxyvitamin D3; for Relative index of Solution 10 (a group of a drug combination) / Relative index of Solution 8 (Test Compound alone): amount of formed formazan, Solution 7 = 1.00
Experimental: 100 μL of a 10% FCS-αMEM comprising either DMSO and ethanol (referred to as Solution 7, hereinafter), a Test Compound solution and ethanol (referred to as Solution 8, hereinafter), a 1α,25-dihydroxyvitamin D3 solution and DMSO (referred to as Solution 9, hereinafter) or a Test Compound solution and the 1α,25-dihydroxyvitamin D3 solution (referred to as Solution 10, hereinafter) was dispensed. The ROS17/2.8 cells were inoculated to a medium at a density of 5×10^3 cells/100 μL/well. After culture of the cells for about 48 hours, the effect of Test Compound and 1α,25-dihydroxyvitamin D3 on the cell growth of the ROS17/2.8 cells was evaluated using the MTT method. Namely, after culture of the cells for about 44 hours, an MTT solution (3-[4,5-dimethylthiazol-2-yl]-2,5-diphenyltetrazolium bromide 2 mg/mL) was added in an amount of 25 μL/well, and the cells were further cultured for four hours. After the medium was removed, DMSO was added in an amount of 100 μL/well so as to dissolve the formed formazan. The amount of the formed formazan was determined by measuring the absorbance (at 560 nm) of the solution by a microplate reader.
The 10% FCS-αMEM comprising Solution 7 was prepared by diluting DMSO by 1000 fold with the 10% FCS-αMEM, and diluting ethanol by 10000 fold with the 10% FCS-αMEM. The 10% FCS-αMEM comprising Solution 8 was prepared by diluting a 2×10^−5M Test Compound solution by 1000 fold with the 10% FCS-αMEM, and diluting ethanol by 10000 fold with the 10% FCS-αMEM. The 10% FCS-αMEM comprising Solution 9 was prepared by diluting 2×10^−3M 1α,25-dihydroxyvitamin D3 solution by 10000 fold with the 10% FCS-αMEM, and diluting DMSO by 1000 fold with the 10% FCS-αMEM. The 10% FCS-αMEM comprising Solution 10 was prepared by diluting a 2×10^−5M Test Compound solution by 1000 fold with the 10% FCS-αMEM, and diluting 2×10^−3M 1α,25-dihydroxyvitamin D3 solution by 10000 fold with the 10% FCS-αMEM.
The amount of the formed formazan in each solution addition group was obtained in terms of a percentage to the average value of the amounts of formed formazan in four wells in a Solution 7 addition group. All the determined values were shown in terms of the average value±standard deviation of the four wells of each solution addition group.

SMILES | activity at 0.02 µM | Relative index of Solution 10 (a group of a drug combination) | Amount of formed formazan, Solution 10 (a group of a drug combination) | Relative index of Solution 8 (Test Compound alone)
CCc1nc(-c2ccc(OCCCCCOc3ccc(/C(N)=N/O)cc3)cc2)c(CC2CCCC2)s1 [Compound 4, N-hydroxy-4-{5-[4-(5-cyclopentylmethyl-2-ethyl-1,3-thiazol-4-yl)phenoxy]pentoxy}benzamidine] | 105 ± 1.9% | 1.12 | 112 ± 1.6 # % | 1.05
CCCCc1sc(N(C)CCN2CCOCC2)nc1-c1ccc(OCCCCCOc2ccc(/C(N)=N/O)cc2)cc1 [Compound 13, N-hydroxy-4-{5-[4-(5-butyl-2-(methyl(2-(4-morpholino)ethyl)amino)-1,3-thiazol-4-yl)phenoxy]pentoxy}benzamidine] | 103 ± 5.2% | 1.13 | 113 ± 2.1 # % | 1.03
CCc1sc(N(C)Cc2ccccc2)nc1-c1ccc(OCCCCCOc2ccc(/C(N)=N/O)cc2)cc1 [Compound 10, N-hydroxy-4-{5-[4-(2-benzylmethylamino-5-ethyl-1,3-thiazol-4-yl)phenoxy]pentoxy}benzamidine] | 99 ± 2.5% | 1.11 | 111 ± 1.3 # % | 0.99
Cc1nc(-c2ccc(OCCCCC(=O)Nc3ccc(/C(N)=N/O)cc3)cc2)c(C(C)C)s1 [Compound 18, N-hydroxy-4-{5-[4-(5-isopropyl-2-methyl-1,3-thiazol-4-yl)phenoxy]pentanoylamino}benzamidine] | 106 ± 5% | 1.15 | 115 ± 3.0 ## % | 1.06
Cc1nc(-c2ccc(OCCCCCOc3ccc(/C(N)=N/O)cc3)cc2)c(CCNCCCOC(C)C)s1 [Compound 25, N-hydroxy-4-{5-[4-(5-(2-(3-(isopropoxy)propylamino)ethyl)-2-methyl-1,3-thiazol-4-yl)phenoxy]pentoxy}benzamidine] | 101 ± 3.2% | 1.12 | 112 ± 1.5 # % | 1.01
C=Cc1sc(C)nc1-c1ccc(OCCCCCOc2ccc(/C(N)=N/O)cc2)cc1 [Compound 5, N-hydroxy-4-{5-[4-(5-vinyl-2-methyl-1,3-thiazol-4-yl)phenoxy]pentoxy}benzamidine] | 100 ± 3.7% | 1.10 | 110 ± 2.4 # % | 1.00
Cc1nc(-c2ccc(OCCCCCOc3ccc(/C(N)=N/O)cc3)cc2)c(CCCl)s1 [Compound 3, N-hydroxy-4-{5-[4-(5-(2-chloroethyl)-2-methyl-1,3-thiazol-4-yl)phenoxy]pentoxy}benzamidine] | 105 ± 3.1% | 1.12 | 112 ± 2.7 # % | 1.05
CC(C)c1sc(N(C)Cc2cccnc2)nc1-c1ccc(OCCCCCOc2ccc(/C(N)=N/O)cc2)cc1 [Compound 12, N-hydroxy-4-{5-[4-(5-isopropyl-2-(methyl(pyridin-3-yl-methyl)amino)-1,3-thiazol-4-yl)phenoxy]pentoxy}benzamidine] | 105 ± 3% | 1.15 | 115 ± 4.3 # % | 1.05
CCCN(CCC)c1nc(-c2ccc(OCCCCCOc3ccc(/C(N)=N/O)cc3)cc2)c(C(C)C)s1 [Compound 16, N-hydroxy-4-{5-[4-(5-isopropyl-2-dipropylamino-1,3-thiazol-4-yl)phenoxy]pentoxy}benzamidine] | 107 ± 1.3% | 1.18 | 118 ± 3.7 # % | 1.07
Cc1nc(-c2ccc(OCCCCCN(C)c3ccc(/C(N)=N/O)cc3)cc2)c(C(C)C)s1 [Compound 19, N-hydroxy-4-{5-[4-(5-isopropyl-2-methyl-1,3-thiazol-4-yl)phenoxy]pentylmethylamino}benzamidine] | 108 ± 2.7% | 1.19 | 119 ± 4.8 # % | 1.08
CCCN(CCC)c1nc(-c2ccc(OCCCCCOc3ccc(/C(N)=N/O)cc3)cc2)c(CC2CCCC2)s1 [Compound 14, N-hydroxy-4-{5-[4-(5-cyclopentylmethyl-2-dipropylamino-1,3-thiazol-4-yl)phenoxy]pentoxy}benzamidine] | 103 ± 2.5% | 1.13 | 113 ± 1.3 # % | 1.03
Cc1nc(-c2ccc(OCCCCCOc3ccc(/C(N)=N/O)c(F)c3)cc2)c(C(C)C)s1 [Compound 20, N-hydroxy-2-fluoro-4-{5-[4-(5-isopropyl-2-methyl-1,3-thiazol-4-yl)phenoxy]pentoxy}benzamidine] | 106 ± 3.1% | 1.13 | 113 ± 1.0 ## % | 1.06
Cc1sc(N(C)Cc2ccccc2)nc1-c1ccc(OCCCCCOc2ccc(/C(N)=N/O)cc2)cc1 [Compound 8, N-hydroxy-4-{5-[4-(2-benzylmethylamino-5-methyl-1,3-thiazol-4-yl)phenoxy]pentoxy}benzamidine] | 102 ± 4.9% | 1.15 | 115 ± 2.3 ## % | 1.02
Cc1sc(N(C)Cc2cccnc2)nc1-c1ccc(OCCCCCOc2ccc(/C(N)=N/O)cc2)cc1 [Compound 9, N-hydroxy-4-{5-[4-(5-methyl-2-(methyl(pyridin-3-ylmethyl)amino)-1,3-thiazol-4-yl)phenoxy]pentoxy}benzamidine] | 108 ± 2.3% | 1.20 | 120 ± 2.1 ## % | 1.08
